The source of these data is patent publication US11198869B2, “Angelman syndrome antisense treatment” (The Texas A&M University System, priority 2017, dated 2021).

In the assay the test system is SNORD116. Nature of the assay: SNORD116 steady state RNA (qRT-PCR) in GABAergic iPSC-derived neurons. Type of assay: cell-based, human. The following applies: 10-point dose curve 1 nM-30 μM; 14 DIV to 20 DIV. The text has this:
The effects of ASO-4 and Topotecan were then examined on the SNORD116, IPW, SNORD115, and SNORD109A RNAs, which are located upstream of the ASO-4 target region (see FIG. 1A).
GABAergic and glutamatergic induced pluripotent stem cell (iPSC) derived neural precursor cells (NRC-100-010-001 and GNC-301-030-001, Cellular Dynamics International, Madison Wis.) were differentiated into neurons according to the manufactures protocol. Briefly, neural precursor cells were thawed and resuspended in chemically defined medium and added to sterile-culture plates coated with poly-D-lysine and laminin. The medium was replaced 24 hr after plating and then one-half of the medium was replaced every 3-5 days afterwards.
For cultured iPSC-derived neurons, RNA isolation and cDNA synthesis were performed using the Cell-to-CT kit (Thermo Fisher Scientific) in a lysate volume of 55 μl.
The steady state RNA levels of target transcripts were measured using TaqMan quantitative reverse-transcription PCR (qRT-PCR) assays. […] Cycling conditions were 2 minutes at 50° C., 10 minutes at 95° C., and 40 cycles of 15 seconds at 95° C. and 1 minute at 60° C., with readings taken at the 60° C. step of every cycle. […] Data was retrieved and analyzed with the BIORAD CFX Maestro software (Bio-Rad Laboratories). […]
In general terms: Real-time PCR tracks product formation cycle by cycle.

`CC[C@@]1(O)C(=O)OCc2c1cc1n(c2=O)Cc2cc3c(CN(C)C)c(O)ccc3nc2-1` [Topotecan, reference compound]: the “effect on SNORD116 RNA levels (in words)” value was “significant effect on SNORD116, IPW, SNORD115, and SNORD109A/B RNA levels that was dose dependent”.
